# According to ChEMBL document CHEMBL4043239, “Discovery and optimization of oxadiazole-based FLAP inhibitors” (Bioorg Med Chem Lett, 2017):
# pIC50: −log10 of the molar value.
# Tests used:
# [1] = biological target: T1, Arachidonate 5-lipoxygenase-activating protein (Homo sapiens, UniProt P20292); test: Displacement of [125I]-L-691831 from human FLAP expressed in Sf9 cell membranes after 2 hrs by Topcount method
# T1 sequence (P20292 whole entry): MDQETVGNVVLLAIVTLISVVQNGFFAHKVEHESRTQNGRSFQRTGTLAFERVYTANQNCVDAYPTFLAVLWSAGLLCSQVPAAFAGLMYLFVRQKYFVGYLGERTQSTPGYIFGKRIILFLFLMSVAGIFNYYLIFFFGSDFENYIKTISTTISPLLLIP
# [2] = biological target: T1, Arachidonate 5-lipoxygenase-activating protein; test: Inhibition of FLAP in calcimycin-stimulated human whole blood assessed as reduction in LTB4 production pretreated for 15 mins followed by calcimycin addition after 30 mins by ELISA
# [3] = Aqueous kinetic solubility of the compound at pH 7.4; type: physicochemical; details: for Kinetic_solubility: buffer; for solubility kinetic: aqueous, read-out: Kinetic_solubility
# [4] = Stability in human liver microsomes at 1 uM pretreated for 10 mins followed by NADPH addition after 60 mins by LC/MS analysis relative to hepatic blood flow; type: ADME, microsome; details: read-out: Stability
# [5] = Aqueous equilibrium solubility in citric acid/disodium phosphate buffer at pH 6.8 at 1 uM after 24 hrs by HPLC method; type: physicochemical; details: for solubility: buffer, pH 6.8, 24 h, 1 µM; for solubility thermodynamic at 24 h, 1 µM: citric acid/disodium phosphate buffer, pH 6.8
SMILES,pIC50 [2],solubility kinetic [3] [µg/mL],other results
CC(C)(O)Cn1cc(-c2nc(C3(c4ccc(-c5cnc(N)nc5)cc4)CCC3)no2)cn1,–,> 43,–
CN(C)c1nc(C2(c3ccc(-c4cnc(N)nc4)nc3)CCC2)no1,5.59,–,–
Cc1cc(-c2nc(C3(c4ccc(-c5cnc(N)nc5)cn4)CCC3)no2)[nH]n1,6.47,> 37,–
CC(C)(C)NC(=O)Cn1cc(-c2nc(C3(c4ccc(-c5cnc(N)nc5)cc4)CCC3)no2)cn1,–,22,–
COCCn1cc(-c2nc(C3(c4ccc(-c5cnc(N)nc5)cc4)CCC3)no2)cn1,–,> 41,–
CN(C)c1nc(C2(c3ccc(-c4cnc(N)nc4)cc3)CCC2)no1,–,1.9,–
Cn1cc(-c2nc(C3(c4ccc(-c5cnc(N)nc5)cn4)CCC3)no2)cn1,6.10,> 37,–
Nc1ncc(-c2ccc(C3(c4noc(N5CCCC5)n4)CCC3)cn2)cn1,6.04,–,–
CC(C)(CO)n1cc(-c2nc(C3(c4ccc(-c5cnc(N)nc5)nc4)CCC3)no2)cn1,6.39,> 43,–
CN(C(=O)Cn1cc(-c2nc(C3(c4ccc(-c5cnc(N)nc5)nc4)CCC3)no2)cn1)C(C)(C)C,6.58,27,–
Nc1ncc(-c2ccc(C3(c4noc(N)n4)CCC3)cc2)cn1,–,22,–
CN(C(=O)Cn1cc(-c2nc(C3(c4ccc(-c5cnc(N)nc5)cc4)CCC3)no2)cn1)C(C)(C)C,–,2,–

# Further compounds by rising pIC50 [2], results first:
pIC50 [2],solubility kinetic [3] [µg/mL],SMILES,other results
6.67,> 41,COCCn1cc(-c2nc(C3(c4ccc(-c5cnc(N)nc5)nc4)CCC3)no2)cn1,–
6.71,–,CC(C)[C@](C)(c1ccc(-c2cnc(N)nc2)nc1)c1noc(-c2cnn(CC(=O)N(C)C)c2)n1,"pIC50 [1]: 7.27; Kinetic_solubility [3]: Soluble; hepatic extraction ratio at 1 h, 1 µM [4]: < 0.3; solubility [5]: Soluble"
6.71,26,CC(C)(C)NC(=O)Cn1cc(-c2nc(C3(c4ccc(-c5cnc(N)nc5)nc4)CCC3)no2)cn1,–
6.72,> 38,CCn1cc(-c2nc(C3(c4ccc(-c5cnc(N)nc5)nc4)CCC3)no2)cn1,–
6.79,> 37,Cc1cc(-c2nc(C3(c4ccc(-c5cnc(N)nc5)nc4)CCC3)no2)[nH]n1,–
6.81,> 43,CC(C)(CO)n1cc(-c2nc(C3(c4ccc(-c5cnc(N)nc5)cc4)CCC3)no2)cn1,–
7.03,2,CC(C)(C#N)n1cc(-c2nc(C3(c4ccc(-c5cnc(N)nc5)nc4)CCC3)no2)cn1,–
7.07,> 40,N#CCCn1cc(-c2nc(C3(c4ccc(-c5cnc(N)nc5)nc4)CCC3)no2)cn1,"pIC50 [1]: 7.96; solubility thermodynamic at 24 h, 1 µM [5]: 9 µg/mL"
7.10,3,Cc1cc(-c2nc(C3(c4ccc(-c5cnc(N)nc5)cc4)CCC3)no2)[nH]n1,–
7.32,–,CN(C)C(=O)Cn1cc(-c2nc([C@@](C)(c3ccc(-c4cnc(N)nc4)nc3)C3CC3)no2)cn1,"pIC50 [1]: 8.54; Kinetic_solubility [3]: Soluble; hepatic extraction ratio at 1 h, 1 µM [4]: 0.67; solubility [5]: Soluble"
7.43,17,N#CCCn1cc(-c2nc(C3(c4ccc(-c5cnc(N)nc5)cc4)CCC3)no2)cn1,pIC50 [1]: 9.00
7.48,–,CC(C)[C@](C)(c1ccc(-c2cnc(N)nc2)nc1)c1noc(-c2cnn(C)c2)n1,"pIC50 [1]: 7.80; Kinetic_solubility [3]: Soluble; hepatic extraction ratio at 1 h, 1 µM [4]: < 0.3; solubility thermodynamic at 24 h, 1 µM [5]: 4 µg/mL"
7.72,–,C[C@@](c1ccc(-c2cnc(N)nc2)nc1)(c1noc(-c2cnn(CC#N)c2)n1)C1CC1,"pIC50 [1]: 8.09; Kinetic_solubility [3]: Soluble; hepatic extraction ratio at 1 h, 1 µM [4]: 0.57; solubility [5]: Soluble"
7.92,–,C[C@@](c1ccc(-c2cnc(N)nc2)nc1)(c1noc(-c2cnn(C3COC3)c2)n1)C1CC1,"pIC50 [1]: 8.82; Kinetic_solubility [3]: Soluble; hepatic extraction ratio at 1 h, 1 µM [4]: 0.45; solubility [5]: Soluble"
